{"source": "patent US12209256B2", "about": "“System for protein inactivation and recombinant phages for targeted bacterial killing, infection, biodetection, and as a means of protein extraction” (priority 2018, dated 2025)", "molecules": {"B1": {"name": "Qtip (protein, listed as Vibrio cholerae)", "chain": "MCDFCSEHIDSLDALQSSLEKGTAIIELLDTALSAGIEVSPRVVSCALSAAHQHLQVSEKINRSLQIGCGSKEVLRLVD"}, "B2": {"name": "ORF584 (protein, listed as Vibrio cholerae)", "chain": "MDLRVSNAKDLLDKFEEKAVQMESISQLLANAPEDLTLATVQGSLSALASIARDAGEAADRLRTISSAEG"}}, "key": {"[1]": {"test_system": "E. coli, V. cholerae, and V. parahaemolyticus", "test": "Generalized DPO-based phage kill switch growth/lysis assay (FIG. 4)", "assay_type": "cell-based", "settings": "arabinose plus DPO (50 μM synthetic DPO per FIG. 4 legend)", "procedure": "FIG. 4 is a graph showing the growth of E. coli, V. cholerae, and V. parahaemolyticus strains lysogenized with the generalized DPO-based phage kill switch in minimal medium lacking (black bars) or containing (white bars) 50 μM synthetic DPO to induce lysis, where all media contained arabinose.\n(§1) Growth, Lysis, and Reporter Assays. Typically, overnight cultures were back diluted 1:1000 into fresh medium with appropriate antibiotics and strains were grown to OD600 0.5-0.6. Cultures were back diluted 1:20, and grown to OD600 0.1, before being dispensed (200 μL) into 96 well plates (Corning Costar 3904). MMC, ara, or aTc was added as specified. […] Plates were shaken at 37° C. and a BioTek Synergy Neo2 Multi-Mode reader was used to measure OD600, OD600 and bioluminescence, or OD600 and fluorescence. […]. In the case of fluorescence assays, M9 supplemented with 0.4% casamino acids (BD-Difco) was used and readings were made by excitation at 588 nm and emission at 633 nm. The glycerol stocks were prepared from three independent colonies of each strain at a single OD600. Care was taken to ensure that the OD600 between these strains was identical prior to storage. Parallel cultures of the same strains were used for viral preparations."}, "[2]": {"test_system": "V. parahaemolyticus lysogenized with phage VP882", "test": "Growth/lysis assay (OD600), VP882 lysogen", "assay_type": "cell-based", "settings": "for host cell lysis (OD600): wild-type VP882 lysogen, expression induced (ara or aTc) or MMC added", "procedure": "as §1"}, "[3]": {"test_system": "V. cholerae carrying the VP882 prophage", "test": "Growth/lysis assay (OD600), V. cholerae carrying VP882", "assay_type": "cell-based", "procedure": "as §1"}, "[4]": {"test_system": "phage VP882 vqmAPhage::Tn5 in V. cholerae", "test": "Viral load by quantitative PCR of viral preparations", "assay_type": "cell-based", "procedure": "qPCR and Viral Preparations. Viral preparations consisted of purified non-chromosomal DNA (ZR BAC kit, Zymo Research) prepared from 2 mL of cells. Following addition of the indicated compounds or water control, the cultures were returned to growth for 3 h prior to harvesting. This alteration in procedure was necessary to enable growth of sufficient cells for use with the viral preparation kit. 0.5 ng of purified non-chromosomal DNA was used for each qPCR reaction. qPCR reactions were performed as described above for qRT-PCR reactions. Data were analyzed by a comparative CT method in which the VP882 phage-specific primer set (JSO-1399×1400) was normalized to the non-phage plasmid-specific primer set (JSO-1401×1402). The reference sample for each comparison was the isogenic strain (Δtdh or WT) that was not induced."}, "Pgp69-lux": {"test_system": "Pgp69-lux", "test": "Pgp69-lux reporter assay in V. parahaemolyticus lysogen", "assay_type": "cell-based", "settings": "VP882 lysogen", "procedure": "as §1"}, "[5]": {"test_system": "V. parahaemolyticus harboring phage VP882", "test": "Phage (virion) DNA isolation from culture fluids", "assay_type": "cell-based", "procedure": "Phage DNA Isolation. Phage DNA was purified from phage particles present in the supernatants of lysed cells (virion) and from host cell pellets lysogenized with VP882 (prophage). Prophage DNA was purified using the FosmidMAX kit (Lucigen) according to the manufacturer's protocol for 1.5 mL cultures. Virion DNA was isolated using a Phage DNA isolation kit (Norgen Biotek) including the DNase I and Proteinase K treatment steps indicated in the manufacturer's protocol."}, "phage VP882 cI": {"test_system": "phage VP882 cI", "test": "Confocal microscopy of HALO-cI localization (VP882 cI)", "assay_type": "cell-based", "settings": "single-cell level in E. coli", "procedure": "(§2) Confocal Microscopy. Overnight cultures, started from single colonies of E. coli (T7Express) carrying HALO and/or SNAP fusions (see Table 2) were back-diluted 1:1000, and grown at 37° C. to OD600˜0.2. Either MMC, aTc, or ethanol in water was added. The so-treated samples were returned to shaking at 37° C. for an additional 60 min prior to live-cell staining and imaging. Live-cell staining was performed using a protocol adapted from (Ke et al., 2016). Briefly, HALO-TMR was added to each sample at 10 μM. The samples were incubated in the dark for 15-20 min at 37° C. The cells were pelleted at 13,000 g×1 min, washed twice with M9 medium, and resuspended in 50-150 μL of fresh M9 medium. 5-10 μL of each sample was spotted onto a glass coverslip and overlaid with a small amount of M9-agar. The samples were imaged on a Leica SP8 Confocal microscope. HALO-TMR was excited with 561 nm light and detected within a range of 579-622 nm. For SNAP-Qtip co-localization experiments, the SNAP-specific dye JF503 (Grimm et al., 2017) was added at 10 μM at the same time as the HALO-TMR reagent was added. SNAP was visualized by excitation at 504 nm and detection within 516-540 nm. All images were acquired under the same conditions (laser power and gain) in LASX (Leica Microsystems). Images were imported into Fiji for processing, which consisted solely of adjusting brightness and contrast (min-max)."}, "HIS-HALO-Gp59": {"test_system": "HIS-HALO-Gp59", "test": "Western blot to assess HIS-HALO-Gp59 cleavage", "assay_type": "cell-based, E. coli"}, "Pq-lux [6]": {"test_system": "Pq-lux", "test": "Pq-lux reporter assay in V. parahaemolyticus", "assay_type": "cell-based", "settings": "VP882 lysogen", "procedure": "as §1"}, "Pq-lux [7]": {"test_system": "Pq-lux", "test": "Pq-lux reporter assay in recombinant E. coli", "assay_type": "cell-based", "procedure": "as §1"}, "cI": {"test_system": "cI", "test": "Co-immunoprecipitation of HALO-cI with HIS-Gp55", "assay_type": "binding, phage VP882", "settings": "combined E. coli lysates"}, "HALO-cI from MJ1": {"test_system": "HALO-cI from MJ1", "test": "Confocal microscopy of HALO-cI localization (MJ1 cI)", "assay_type": "cell-based, phage MJ1", "settings": "co-expression in E. coli", "procedure": "as §2"}, "[8]": {"test_system": "HALO-cI repressor from vibriophage VP58.5", "test": "Confocal microscopy of HALO-cI localization (VP58.5 cI)", "assay_type": "cell-based", "settings": "co-expression in E. coli", "procedure": "as §2"}, "lambda HALO-cI": {"test_system": "lambda HALO-cI", "test": "Confocal microscopy of HALO-cI localization (lambda cI)", "assay_type": "cell-based", "settings": "co-expression in E. coli", "procedure": "as §2"}, "[9]": {"settings": "synthetic DPO supplied to WT and Δtdh strains, vqmAPhage induced"}, "[10]": {"settings": "WT and Δtdh strains, qtip from inducible promoter or MMC"}}}
{"molecule": "Cc1cnc(O)c(C)n1", "note": "[DPO, 3,5-dimethylpyrazine-2-ol]", "values": [{"measurement": "lysis", "setting": "[1]", "value": "maximal lysis"}, {"measurement": "host cell lysis", "setting": "[2]; minimal medium lacking threonine, DPO added in the absence of induction of VqmAPhage", "value": "no lysis"}, {"measurement": "host cell lysis", "setting": "[2]; minimal medium lacking threonine, vqmAPhage induced with 0.2% ara, DPO 10 μM", "value": "maximal host cell lysis"}, {"measurement": "additional lysis with exogenous DPO versus endogenously-produced DPO only", "setting": "[3]; WT strain", "value": 25, "unit": "%"}, {"measurement": "lysis", "setting": "[3]; [9]", "value": "lysis occurred"}, {"measurement": "additional increase in viral load with exogenous DPO versus endogenous DPO only", "setting": "[4]; WT strain", "value": 35, "unit": "%"}, {"measurement": "viral load", "setting": "[4]; [9]", "value": "increased in both strains to similar extents"}]}
{"molecule": "CO[C@@]12[C@H](COC(N)=O)C3=C(C(=O)C(C)=C(N)C3=O)N1C[C@@H]1N[C@@H]12", "note": "[MMC, mitomycin C]", "values": [{"measurement": "host cell lysis", "setting": "[2]; VP882 phage harboring gp62::Tn5", "value": "do not"}, {"measurement": "host cell lysis", "setting": "[2]; VP882 phage with a Tn5 in vqmAPhage", "value": "lyse"}, {"measurement": "light production from Pgp69-lux", "setting": "Pgp69-lux", "value": "rapidly increased"}, {"measurement": "offset between activation of Pq-lux and activation of Pgp69-lux", "setting": "Pgp69-lux", "value": 10, "unit": "min"}, {"measurement": "release of VP882 phage DNA into culture fluids", "setting": "[5]", "value": "VP882 phage DNA could be purified"}, {"measurement": "cI localization (VP882 HALO-cI)", "setting": "phage VP882 cI", "value": "remained diffuse"}, {"measurement": "HIS-HALO-Gp59 bands on Western blot", "setting": "HIS-HALO-Gp59; recA+ E. coli, MMC-treated", "value": "lower-molecular-weight bands, presumably cleavage products"}, {"measurement": "HIS-HALO-Gp59 protein on Western blot", "setting": "HIS-HALO-Gp59; ΔrecA E. coli, MMC treatment", "value": "unaffected"}, {"measurement": "light production from Pq-lux", "setting": "Pq-lux [6]", "value": "rapidly increased"}, {"measurement": "Pq-lux light production", "setting": "Pq-lux [7]; recA+ E. coli carrying Pq-lux and HIS-HALO-Gp59", "value": "significant increase in light production"}, {"measurement": "Pq-lux light production", "setting": "Pq-lux [7]; ΔrecA E. coli carrying Pq-lux and HIS-HALO-Gp59", "value": "no effect"}]}
{"molecule": "B1", "values": [{"measurement": "binding of cI during purification of HIS-Gp55", "setting": "cI", "value": "cI binds to Gp55"}, {"measurement": "host cell lysis (OD600)", "setting": "[2]", "value": "host cell lysis comparable to when MMC was added or vqmAPhage was induced"}, {"measurement": "lysis", "setting": "[3]; [10]", "value": "Near-complete lysis"}, {"measurement": "cI aggregation (MJ1 HALO-cI)", "setting": "HALO-cI from MJ1", "value": "resulted in foci"}, {"measurement": "cI localization (VP882 HALO-cI)", "setting": "phage VP882 cI", "value": "foci located primarily at the cell poles"}, {"measurement": "cI aggregation (VP58.5 HALO-cI)", "setting": "[8]", "value": "Aggregation also occurred"}, {"measurement": "viral production", "setting": "[4]; [10]", "value": "increased viral production"}, {"measurement": "cI aggregation (lambda HALO-cI)", "setting": "lambda HALO-cI", "value": "No aggregation occurred"}, {"measurement": "Pq-lux activity", "setting": "Pq-lux [7]; combined reporter plasmid (inducible vqmAPhage, Pq-lux, cI), pTetA-gp55 induced", "value": "sufficient to generate Pq-lux activity"}]}
{"molecule": "B2", "values": [{"measurement": "host cell lysis (OD600)", "setting": "[2]", "value": "lysis"}, {"measurement": "cI aggregation (MJ1 HALO-cI)", "setting": "HALO-cI from MJ1", "value": "caused aggregation"}, {"measurement": "cI localization (VP882 HALO-cI)", "setting": "phage VP882 cI", "value": "stripe of cI localization along the length of the cell"}, {"measurement": "cI localization (VP882 HALO-cI)", "setting": "phage VP882 cI; listed as orf584", "value": "caused aggregation"}, {"measurement": "cI aggregation (lambda HALO-cI)", "setting": "lambda HALO-cI", "value": "not"}, {"measurement": "phage VP882 Pq expression", "setting": "Pq-lux [7]; orf584 induced, host per Table 2", "value": "de-repression"}]}
